Key:
[1] = target: T1, myeloperoxidase (MPO) (Homo sapiens (Human), UniProt P05164); assay: MPO peroxidation assay (Amplex Red assay); format: biochemical; settings: potency range class
Summary of the method: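 IC50 values come from a four-parameter fit of rates taken from the linear 180-540 s portion of a 15 min kinetic read of resorufin (Ex 535/Em 590 nm). Amplex Red (200 μM) plus 10 mM H2O2 was added after a 10 min room-temperature preincubation of inhibitor with 200 pM MPO and 40 nM H2O2 in 100 mM KPi, pH 7.4.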

[2] = target: T1, myeloperoxidase (MPO); assay: MPO chlorination assay (APF assay); format: biochemical; settings: potency range class
Summary of the method: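 Chlorinating activity followed by APF cleavage to fluorescein (485/535 nm, 3 min kinetic read) after adding APF and 10 μM H2O2. Beforehand, 200 pM enzyme, compound and 120 mM NaCl sat 10 min at room temperature in 100 mM KPi, pH 7.4. Initial-rate slopes gave % inhibition; IC50 by Hill-slope fit.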

T1 sequence (P05164 49-745): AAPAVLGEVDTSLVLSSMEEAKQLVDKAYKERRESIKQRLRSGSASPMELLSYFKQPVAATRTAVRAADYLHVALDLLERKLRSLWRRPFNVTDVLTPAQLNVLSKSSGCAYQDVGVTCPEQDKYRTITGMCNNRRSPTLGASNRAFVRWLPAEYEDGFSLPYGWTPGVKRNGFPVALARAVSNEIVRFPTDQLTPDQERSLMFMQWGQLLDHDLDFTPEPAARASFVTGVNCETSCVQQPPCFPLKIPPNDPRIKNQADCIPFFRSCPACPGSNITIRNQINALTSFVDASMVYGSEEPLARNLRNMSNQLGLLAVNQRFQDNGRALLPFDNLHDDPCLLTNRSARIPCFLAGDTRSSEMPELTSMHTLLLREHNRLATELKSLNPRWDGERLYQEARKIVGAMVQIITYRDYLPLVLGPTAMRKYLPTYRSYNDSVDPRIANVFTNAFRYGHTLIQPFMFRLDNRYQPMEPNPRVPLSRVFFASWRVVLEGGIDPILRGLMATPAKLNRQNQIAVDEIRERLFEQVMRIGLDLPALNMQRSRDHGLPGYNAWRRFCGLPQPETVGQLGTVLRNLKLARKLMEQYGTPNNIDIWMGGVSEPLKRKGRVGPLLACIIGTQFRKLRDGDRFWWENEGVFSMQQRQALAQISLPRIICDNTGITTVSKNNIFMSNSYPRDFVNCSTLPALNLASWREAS

Row | IC50 [1] [nM] | IC50 [2] [nM] | SMILES
1 | 1 to 100 | 1 to 100 | Nc1cc(Cc2cnn(Cc3cccc(C4CNC4)c3)c2)c2nn[nH]c2n1 [Example 210, 7-[(1-{[3-(Azetidin-3-yl)phenyl]methyl}-1H-pyrazol-4-yl)methyl]-3H-[1,2,3]triazolo[4,5-b]pyridin-5-amine]
2 | 1 to 100 | 1 to 100 | Nc1cc(Cc2cnn(Cc3cccc(OC4CC4)c3)c2)c2nn[nH]c2n1 [Example 98, 7-((1-(3-Cyclopropoxybenzyl)-1H-pyrazol-4-yl)methyl)-3H-[1,2,3]triazolo[4,5-b]pyridin-5-amine]
3 | 1 to 100 | 1 to 100 | Nc1cc(Cc2cnn(Cc3ccc4c(c3)CC[C@H]4N)c2)c2nn[nH]c2n1 [Example 268, 7-[(1-{[(1R)-1-Amino-2,3-dihydro-1H-inden-5-yl]methyl}-1H-pyrazol-4-yl)methyl]-3H-[1,2,3]triazolo[4,5-b]pyridin-5-amine]
4 | 1 to 100 | 101 to 999 | Nc1cc(Cc2cnn(Cc3ccc(-c4ccccc4)cc3)c2)c2nn[nH]c2n1 [Example 39, 7-((1-([1,1′-Biphenyl]-4-ylmethyl)-1H-pyrazol-4-yl)methyl)-3H-[1,2,3]triazolo[4,5-b]pyridin-5-amine]
5 | 1 to 100 | 101 to 999 | Nc1cc(Cc2cnn(Cc3ccc4c(c3)C(=O)NCC4)c2)c2nn[nH]c2n1 [Example 259, 7-{[4-({5-Amino-3H-[1,2,3]triazolo[4,5-b]pyridin-7-yl}methyl)-1H-pyrazol-1-yl]methyl}-1,2,3,4-tetrahydroisoquinolin-1-one]
6 | 1 to 100 | 101 to 999 | Nc1cc(Cc2cnn(Cc3cccnc3)c2)c2nn[nH]c2n1 [Example 102, 7-((1-(Pyridin-3-ylmethyl)-1H-pyrazol-4-yl)methyl)-3H-[1,2,3]triazolo[4,5-b]pyridin-5-amine]
7 | 1 to 100 | 1 to 100 | Nc1cc(Cc2cnn(Cc3ccc(Cn4ccnc4)cc3)c2)c2nn[nH]c2n1 [Example 110, 7-((1-(4-((1H-Imidazol-1-yl)methyl)benzyl)-1H-pyrazol-4-yl)methyl)-3H-[1,2,3]triazolo[4,5-b]pyridin-5-amine]
8 | 1 to 100 | 1 to 100 | Nc1cc(Cc2cnn(Cc3cccc4ccccc34)c2)c2nn[nH]c2n1 [Example 41, 7-((1-(Naphthalen-1-ylmethyl)-1H-pyrazol-4-yl)methyl)-3H-[1,2,3]triazolo[4,5-b]pyridin-5-amine]
9 | 1 to 100 | 101 to 999 | CS(=O)(=O)c1cccc(Cn2cc(Cc3cc(N)nc4[nH]nnc34)cn2)c1 [Example 122, 7-((1-(3-(Methylsulfonyl)benzyl)-1H-pyrazol-4-yl)methyl)-3H-[1,2,3]triazolo[4,5-b]pyridin-5-amine]
10 | 1 to 100 | 101 to 999 | Nc1cc(Cc2cnn(Cc3cccc(C(F)(F)F)c3)c2)c2nn[nH]c2n1 [Example 62, 7-((1-(3-(Trifluoromethyl)benzyl)-1H-pyrazol-4-yl)methyl)-3H-[1,2,3]triazolo[4,5-b]pyridin-5-amine]
11 | 1 to 100 | 101 to 999 | Nc1cc(Cc2cnn(Cc3nc(-c4ccccc4)no3)c2)c2nn[nH]c2n1 [Example 120, 7-((1-((3-Phenyl-1,2,4-oxadiazol-5-yl)methyl)-1H-pyrazol-4-yl)methyl)-3H-[1,2,3]triazolo[4,5-b]pyridin-5-amine]
12 | 1 to 100 | 101 to 999 | Cc1ccccc1Cn1cc(Cc2cc(N)nc3[nH]nnc23)cn1 [Example 43, 7-((1-(2-Methylbenzyl)-1H-pyrazol-4-yl)methyl)-3H-[1,2,3]triazolo[4,5-b]pyridin-5-amine]
13 | 1 to 100 | 101 to 999 | Nc1cc(Cc2cnn(Cc3cccc(CN4CCCC4)c3)c2)c2nn[nH]c2n1 [Example 254, 7-[(1-{[3-(Pyrrolidin-1-ylmethyl)phenyl]methyl}-1H-pyrazol-4-yl)methyl]-3H-[1,2,3]triazolo[4,5-b]pyridin-5-amine]
14 | 1 to 100 | 101 to 999 | CC(C)(C)c1ccc(Cn2cc(Cc3cc(N)nc4[nH]nnc34)cn2)cc1 [Example 113, 7-((1-(4-(tert-Butyl)benzyl)-1H-pyrazol-4-yl)methyl)-3H-[1,2,3]triazolo[4,5-b]pyridin-5-amine]
15 | 1 to 100 | 1 to 100 | Nc1cc(Cc2cnn(Cc3cccc([C@@H]4CCNC4)c3)c2)c2nn[nH]c2n1 [Example 190]
16 | 1 to 100 | 101 to 999 | Nc1cc(Cc2cnn(Cc3ccc4cc[nH]c(=O)c4c3)c2)c2nn[nH]c2n1 [Example 175, 7-((4-((5-Amino-3H-[1,2,3]triazolo[4,5-b]pyridin-7-yl)methyl)-1H-pyrazol-1-yl)methyl)isoquinolin-1(2H)-one]

More lines, now with the values behind:

Row | SMILES | IC50 [1] [nM] | IC50 [2] [nM]
17 | Nc1cc(Cn2cc(-c3ccccc3)nn2)c2nn[nH]c2n1 [Example 162, 7-[(4-Phenyl-1H-1,2,3-triazol-1-yl)methyl]-3H-[1,2,3]triazolo[4,5-b]pyridin-5-amine] | 101 to 999 | 101 to 999
18 | CC1NCCc2cc(Cn3cc(Cc4cc(N)nc5[nH]nnc45)cn3)ccc21 (stereo not shown) [Example 181, 7-({1-[(1-Methyl-1,2,3,4-tetrahydroisoquinolin-6-yl)methyl]-1H-pyrazol-4-yl}methyl)-3H-[1,2,3]triazolo[4,5-b]pyridin-5-amine] | 1 to 100 | 1 to 100
19 | Nc1cc(Cc2cnn(Cc3cccc(N4CCNC5(CCC5)C4)c3)c2)c2nn[nH]c2n1 [Example 225, 7-({1-[(3-{5,8-Diazaspiro[3.5]nonan-8-yl}phenyl)methyl]-1H-pyrazol-4-yl}methyl)-3H-[1,2,3]triazolo[4,5-b]pyridin-5-amine] | 101 to 999 | 1 to 100
20 | Nc1cc(Cn2nnc3ccccc32)c2nn[nH]c2n1 [Example 160, 7-(1H-1,2,3-Benzotriazol-1-ylmethyl)-3H-[1,2,3]triazolo[4,5-b]pyridin-5-amine] | 1 to 100 | 1 to 100
21 | Nc1cc(Cc2cnn(-c3cccc(COc4ccccc4)c3)c2)c2nn[nH]c2n1 [Example 36, 7-((1-(3-(Phenoxymethyl)phenyl)-1H-pyrazol-4-yl)methyl)-3H-[1,2,3]triazolo[4,5-b]pyridin-5-amine] | 1 to 100 | 101 to 999
22 | Nc1cc(Cn2nnc3c(Cl)cccc32)c2nn[nH]c2n1 [Example 166] | 1000 to 10000 | 1000 to 10000
23 | Nc1cc(Cc2cnn(Cc3cccc(OCC4CCc5ccccc54)c3)c2)c2nn[nH]c2n1 (stereo not shown) [Example 235, 7-[(1-{[3-(2,3-Dihydro-1H-inden-1-ylmethoxy)phenyl]methyl}-1H-pyrazol-4-yl)methyl]-3H-[1,2,3]triazolo[4,5-b]pyridin-5-amine] | 101 to 999 | 101 to 999
24 | Nc1cc(Cc2cnn(Cc3cccc(Oc4cccc5c4CNC5)c3)c2)c2nn[nH]c2n1 [Example 231, 7-[(1-{[3-(2,3-Dihydro-1H-isoindol-4-yloxy)phenyl]methyl}-1H-pyrazol-4-yl)methyl]-3H-[1,2,3]triazolo[4,5-b]pyridin-5-amine] | 1 to 100 | 1 to 100
25 | Nc1cc(Cn2nnc3cccc(Cl)c32)c2nn[nH]c2n1 [Example 165, 7-[(7-Chloro-1H-1,2,3-benzotriazol-1-yl)methyl]-3H-[1,2,3]triazolo[4,5-b]pyridin-5-amine] | 101 to 999 | 101 to 999
26 | Nc1cc(Cc2cnn(Cc3ccccc3C3CCNCC3)c2)c2nn[nH]c2n1 [Example 215, 7-[(1-{[2-(Piperidin-4-yl)phenyl]methyl}-1H-pyrazol-4-yl)methyl]-3H-[1,2,3]triazolo[4,5-b]pyridin-5-amine] | 1 to 100 | 101 to 999
27 | COc1cc(Cn2cc(Cc3cc(N)nc4[nH]nnc34)cn2)cc([C@@H]2CCNC2)c1 [Example 197, 7-{[1-({3-Methoxy-5-[(3S)-pyrrolidin-3-yl]phenyl}methyl)-1H-pyrazol-4-yl]methyl}-3H-[1,2,3]triazolo[4,5-b]pyridin-5-amine] | 1 to 100 | 1 to 100
28 | Nc1cc(Cc2cnn(Cc3ccc(C(=O)NCc4ccncc4)cc3)c2)c2nn[nH]c2n1 [Example 86, 4-{[4-({5-Amino-3H-[1,2,3]triazolo[4,5-b]pyridin-7-yl}methyl)-1H-pyrazol-1-yl]methyl}-N-(pyridin-4-ylmethyl)benzamide] | 1 to 100 | 101 to 999
29 | Nc1cc(Cc2cnn(CC3CCN(C(=O)OCc4ccccc4)CC3)c2)c2nn[nH]c2n1 [Example 65, Benzyl 4-((4-((5-amino-3H-[1,2,3]triazolo[4,5-b]pyridin-7-yl)methyl)-1H-pyrazol-1-yl)methyl)piperidine-1-carboxylate] | 101 to 999 | 101 to 999
30 | Nc1cc(Cc2cnn(-c3cccc(Cc4ccccc4)c3)c2)c2nn[nH]c2n1 [Example 21, 7-((1-(3-Benzylphenyl)-1H-pyrazol-4-yl)methyl)-3H-[1,2,3]triazolo[4,5-b]pyridin-5-amine] | 1 to 100 | 101 to 999
31 | Nc1cc(Cc2cnn(Cc3cccc(N4CCNC(c5cccc(Cl)c5)C4)c3)c2)c2nn[nH]c2n1 (stereo not shown) [Example 218, 7-{[1-({3-[3-(3-Chlorophenyl)piperazin-1-yl]phenyl}methyl)-1H-pyrazol-4-yl]methyl}-3H-[1,2,3]triazolo[4,5-b]pyridin-5-amine] | 101 to 999 | 1 to 100
32 | Nc1cc(Cc2cnn(C[C@H]3C[C@H](Oc4ccc(F)cc4)CN3)c2)c2nn[nH]c2n1 [Example 282, 7-[(1-{[(2R,4S)-4-(4-Fluorophenoxy)pyrrolidin-2-yl]methyl}-1H-pyrazol-4-yl)methyl]-3H-[1,2,3]triazolo[4,5-b]pyridin-5-amine] | 1 to 100 | 1 to 100
